Values joined by “and” are separate entries in the source; they are usually repeats but may differ in a detail not shown here. Identical values can stand only once.
Legend:
Assay in all cases: Kinase inhibitor specificity profiling (Reaction Biology Corporation)
Format in all cases: biochemical
Design in all cases: % Enzyme Activity (relative to DMSO controls): concentration or dose not given beside the values
[1] = target: T1, panel of 370 protein kinases (Homo sapiens, UniProt O15146); settings: 2 h, kinase MUSK; read-out: % Enzyme Activity (relative to DMSO controls)
T1 construct: purchased Reaction Biology Corporation (assay service)

[2] = target: T2, panel of 370 protein kinases (Homo sapiens, UniProt P05129); settings: 2 h, kinase PKCg; read-out: % Enzyme Activity (relative to DMSO controls)
T2 construct: purchased Reaction Biology Corporation (assay service)

[3] = target: T3, panel of 370 protein kinases (Homo sapiens, UniProt P07333); settings: 2 h, kinase FMS; read-out: % Enzyme Activity (relative to DMSO controls)
T3 construct: purchased Reaction Biology Corporation (assay service)

[4] = target: T4, panel of 370 protein kinases (Homo sapiens, UniProt P17948); settings: 2 h, kinase FLT1/VEGFR1; read-out: % Enzyme Activity (relative to DMSO controls)
T4 construct: purchased Reaction Biology Corporation (assay service)

[5] = target: T5, panel of 370 protein kinases (Homo sapiens, UniProt P22455); settings: 2 h, kinase FGFR4; read-out: % Enzyme Activity (relative to DMSO controls)
T5 construct: purchased Reaction Biology Corporation (assay service)

[6] = target: T6, panel of 370 protein kinases (Homo sapiens, UniProt P35916); settings: 2 h, kinase FLT4/VEGFR3; read-out: % Enzyme Activity (relative to DMSO controls)
T6 construct: purchased Reaction Biology Corporation (assay service)

[7] = target: T7, panel of 370 protein kinases (Homo sapiens, UniProt P41240); settings: kinase CSK
T7 construct: purchased Reaction Biology Corporation (assay service)

[8] = target: T8, panel of 370 protein kinases (Homo sapiens, UniProt P42679); settings: 2 h, kinase CTK/MATK; read-out: % Enzyme Activity (relative to DMSO controls)
T8 construct: purchased Reaction Biology Corporation (assay service)

[9] = target: T9, panel of 370 protein kinases (Homo sapiens, UniProt P48729); settings: 2 h, kinase CK1a1; read-out: % Enzyme Activity (relative to DMSO controls)
T9 construct: purchased Reaction Biology Corporation (assay service)

[10] = target: T10, panel of 370 protein kinases (Homo sapiens, UniProt P52564); settings: 2 h, kinase MKK6; read-out: % Enzyme Activity (relative to DMSO controls)
T10 construct: purchased Reaction Biology Corporation (assay service)

[11] = target: T11, panel of 370 protein kinases (Homo sapiens, UniProt P54762); settings: 2 h, kinase EPHB1; read-out: % Enzyme Activity (relative to DMSO controls)
T11 construct: purchased Reaction Biology Corporation (assay service)

[12] = target: T12, panel of 370 protein kinases (Homo sapiens, UniProt Q13153); settings: 2 h, kinase PAK1; read-out: % Enzyme Activity (relative to DMSO controls)
T12 construct: purchased Reaction Biology Corporation (assay service)

[13] = target: T13, panel of 370 protein kinases (Homo sapiens, UniProt Q15835); settings: 2 h, kinase GRK1; read-out: % Enzyme Activity (relative to DMSO controls)
T13 construct: purchased Reaction Biology Corporation (assay service)

[14] = target: T14, panel of 370 protein kinases (Homo sapiens, UniProt Q16539); settings: kinase P38a/MAPK14
T14 construct: purchased Reaction Biology Corporation (assay service)

[15] = target: T15, panel of 370 protein kinases (Homo sapiens, UniProt Q86Y07); settings: 2 h, kinase VRK2; read-out: % Enzyme Activity (relative to DMSO controls)
T15 construct: purchased Reaction Biology Corporation (assay service)

[16] = target: T16, panel of 370 protein kinases (Homo sapiens, UniProt Q96PN8); settings: 2 h, kinase TSSK3/STK22C; read-out: % Enzyme Activity (relative to DMSO controls)
T16 construct: purchased Reaction Biology Corporation (assay service)

[17] = target: T17, panel of 370 protein kinases (Homo sapiens, UniProt Q9BXA7); settings: 2 h, kinase STK22D/TSSK1; read-out: % Enzyme Activity (relative to DMSO controls)
T17 construct: purchased Reaction Biology Corporation (assay service)

[18] = target: T18, panel of 370 protein kinases (Homo sapiens, UniProt Q9H4A3); settings: kinase WNK1
T18 construct: purchased Reaction Biology Corporation (assay service)

[19] = target: T19, panel of 370 protein kinases (Homo sapiens, UniProt Q9UF33); settings: 2 h, kinase EPHA6; read-out: % Enzyme Activity (relative to DMSO controls)
T19 construct: purchased Reaction Biology Corporation (assay service)

[20] = target: T20, panel of 370 protein kinases (Homo sapiens, UniProt Q9UK32); settings: kinase RSK4
T20 construct: purchased Reaction Biology Corporation (assay service)

[21] = target: T21, panel of 370 protein kinases (Homo sapiens, UniProt Q9UM73); settings: 2 h, kinase ALK; read-out: % Enzyme Activity (relative to DMSO controls)
T21 construct: purchased Reaction Biology Corporation (assay service)

[22] = target: T22, panel of 370 protein kinases (Homo sapiens, UniProt Q9UQM7); settings: 2 h, kinase CAMK2a; read-out: % Enzyme Activity (relative to DMSO controls)
T22 construct: purchased Reaction Biology Corporation (assay service)

T7 sequence (P41240 whole entry): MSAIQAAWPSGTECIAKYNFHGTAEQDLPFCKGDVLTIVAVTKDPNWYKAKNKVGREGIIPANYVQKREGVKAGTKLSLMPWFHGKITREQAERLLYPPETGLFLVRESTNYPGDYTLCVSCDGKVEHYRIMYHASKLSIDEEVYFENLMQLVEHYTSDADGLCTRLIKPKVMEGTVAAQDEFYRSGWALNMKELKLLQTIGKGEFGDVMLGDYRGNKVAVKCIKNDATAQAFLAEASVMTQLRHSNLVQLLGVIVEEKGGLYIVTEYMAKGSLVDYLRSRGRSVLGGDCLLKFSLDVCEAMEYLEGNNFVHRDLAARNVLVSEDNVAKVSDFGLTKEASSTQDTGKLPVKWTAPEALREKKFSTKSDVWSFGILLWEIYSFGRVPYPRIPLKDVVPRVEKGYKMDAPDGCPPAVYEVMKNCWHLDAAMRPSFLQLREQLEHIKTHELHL
T20 sequence (Q9UK32 whole entry): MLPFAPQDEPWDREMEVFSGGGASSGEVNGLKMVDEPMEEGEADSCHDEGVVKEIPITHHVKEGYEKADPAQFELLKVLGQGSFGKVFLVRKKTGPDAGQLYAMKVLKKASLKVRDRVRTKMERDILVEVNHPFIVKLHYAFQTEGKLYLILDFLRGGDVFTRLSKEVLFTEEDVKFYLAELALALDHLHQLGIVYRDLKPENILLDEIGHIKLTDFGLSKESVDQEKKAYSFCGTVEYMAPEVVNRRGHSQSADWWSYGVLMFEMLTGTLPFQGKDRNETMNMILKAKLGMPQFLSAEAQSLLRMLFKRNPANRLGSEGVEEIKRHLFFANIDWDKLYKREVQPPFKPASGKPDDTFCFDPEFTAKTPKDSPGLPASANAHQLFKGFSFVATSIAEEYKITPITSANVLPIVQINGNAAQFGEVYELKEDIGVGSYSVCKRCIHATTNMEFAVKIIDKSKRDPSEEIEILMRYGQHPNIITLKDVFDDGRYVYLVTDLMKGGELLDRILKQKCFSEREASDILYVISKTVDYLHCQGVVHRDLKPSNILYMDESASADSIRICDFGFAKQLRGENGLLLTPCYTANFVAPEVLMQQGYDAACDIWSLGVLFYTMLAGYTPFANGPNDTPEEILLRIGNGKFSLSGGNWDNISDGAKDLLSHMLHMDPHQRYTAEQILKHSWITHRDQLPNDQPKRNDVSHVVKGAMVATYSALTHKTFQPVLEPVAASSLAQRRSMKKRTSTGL
T14 sequence (Q16539 whole entry): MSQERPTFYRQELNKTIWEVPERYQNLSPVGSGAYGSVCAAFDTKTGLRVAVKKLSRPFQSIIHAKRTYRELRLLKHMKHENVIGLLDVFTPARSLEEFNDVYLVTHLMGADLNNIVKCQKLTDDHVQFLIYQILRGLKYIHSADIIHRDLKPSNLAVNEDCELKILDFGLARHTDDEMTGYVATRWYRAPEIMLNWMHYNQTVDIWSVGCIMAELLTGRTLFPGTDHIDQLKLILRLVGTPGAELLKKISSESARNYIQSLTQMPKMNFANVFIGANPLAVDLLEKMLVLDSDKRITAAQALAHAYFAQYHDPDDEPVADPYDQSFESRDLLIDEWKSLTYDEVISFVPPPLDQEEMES
T18 sequence (Q9H4A3 whole entry): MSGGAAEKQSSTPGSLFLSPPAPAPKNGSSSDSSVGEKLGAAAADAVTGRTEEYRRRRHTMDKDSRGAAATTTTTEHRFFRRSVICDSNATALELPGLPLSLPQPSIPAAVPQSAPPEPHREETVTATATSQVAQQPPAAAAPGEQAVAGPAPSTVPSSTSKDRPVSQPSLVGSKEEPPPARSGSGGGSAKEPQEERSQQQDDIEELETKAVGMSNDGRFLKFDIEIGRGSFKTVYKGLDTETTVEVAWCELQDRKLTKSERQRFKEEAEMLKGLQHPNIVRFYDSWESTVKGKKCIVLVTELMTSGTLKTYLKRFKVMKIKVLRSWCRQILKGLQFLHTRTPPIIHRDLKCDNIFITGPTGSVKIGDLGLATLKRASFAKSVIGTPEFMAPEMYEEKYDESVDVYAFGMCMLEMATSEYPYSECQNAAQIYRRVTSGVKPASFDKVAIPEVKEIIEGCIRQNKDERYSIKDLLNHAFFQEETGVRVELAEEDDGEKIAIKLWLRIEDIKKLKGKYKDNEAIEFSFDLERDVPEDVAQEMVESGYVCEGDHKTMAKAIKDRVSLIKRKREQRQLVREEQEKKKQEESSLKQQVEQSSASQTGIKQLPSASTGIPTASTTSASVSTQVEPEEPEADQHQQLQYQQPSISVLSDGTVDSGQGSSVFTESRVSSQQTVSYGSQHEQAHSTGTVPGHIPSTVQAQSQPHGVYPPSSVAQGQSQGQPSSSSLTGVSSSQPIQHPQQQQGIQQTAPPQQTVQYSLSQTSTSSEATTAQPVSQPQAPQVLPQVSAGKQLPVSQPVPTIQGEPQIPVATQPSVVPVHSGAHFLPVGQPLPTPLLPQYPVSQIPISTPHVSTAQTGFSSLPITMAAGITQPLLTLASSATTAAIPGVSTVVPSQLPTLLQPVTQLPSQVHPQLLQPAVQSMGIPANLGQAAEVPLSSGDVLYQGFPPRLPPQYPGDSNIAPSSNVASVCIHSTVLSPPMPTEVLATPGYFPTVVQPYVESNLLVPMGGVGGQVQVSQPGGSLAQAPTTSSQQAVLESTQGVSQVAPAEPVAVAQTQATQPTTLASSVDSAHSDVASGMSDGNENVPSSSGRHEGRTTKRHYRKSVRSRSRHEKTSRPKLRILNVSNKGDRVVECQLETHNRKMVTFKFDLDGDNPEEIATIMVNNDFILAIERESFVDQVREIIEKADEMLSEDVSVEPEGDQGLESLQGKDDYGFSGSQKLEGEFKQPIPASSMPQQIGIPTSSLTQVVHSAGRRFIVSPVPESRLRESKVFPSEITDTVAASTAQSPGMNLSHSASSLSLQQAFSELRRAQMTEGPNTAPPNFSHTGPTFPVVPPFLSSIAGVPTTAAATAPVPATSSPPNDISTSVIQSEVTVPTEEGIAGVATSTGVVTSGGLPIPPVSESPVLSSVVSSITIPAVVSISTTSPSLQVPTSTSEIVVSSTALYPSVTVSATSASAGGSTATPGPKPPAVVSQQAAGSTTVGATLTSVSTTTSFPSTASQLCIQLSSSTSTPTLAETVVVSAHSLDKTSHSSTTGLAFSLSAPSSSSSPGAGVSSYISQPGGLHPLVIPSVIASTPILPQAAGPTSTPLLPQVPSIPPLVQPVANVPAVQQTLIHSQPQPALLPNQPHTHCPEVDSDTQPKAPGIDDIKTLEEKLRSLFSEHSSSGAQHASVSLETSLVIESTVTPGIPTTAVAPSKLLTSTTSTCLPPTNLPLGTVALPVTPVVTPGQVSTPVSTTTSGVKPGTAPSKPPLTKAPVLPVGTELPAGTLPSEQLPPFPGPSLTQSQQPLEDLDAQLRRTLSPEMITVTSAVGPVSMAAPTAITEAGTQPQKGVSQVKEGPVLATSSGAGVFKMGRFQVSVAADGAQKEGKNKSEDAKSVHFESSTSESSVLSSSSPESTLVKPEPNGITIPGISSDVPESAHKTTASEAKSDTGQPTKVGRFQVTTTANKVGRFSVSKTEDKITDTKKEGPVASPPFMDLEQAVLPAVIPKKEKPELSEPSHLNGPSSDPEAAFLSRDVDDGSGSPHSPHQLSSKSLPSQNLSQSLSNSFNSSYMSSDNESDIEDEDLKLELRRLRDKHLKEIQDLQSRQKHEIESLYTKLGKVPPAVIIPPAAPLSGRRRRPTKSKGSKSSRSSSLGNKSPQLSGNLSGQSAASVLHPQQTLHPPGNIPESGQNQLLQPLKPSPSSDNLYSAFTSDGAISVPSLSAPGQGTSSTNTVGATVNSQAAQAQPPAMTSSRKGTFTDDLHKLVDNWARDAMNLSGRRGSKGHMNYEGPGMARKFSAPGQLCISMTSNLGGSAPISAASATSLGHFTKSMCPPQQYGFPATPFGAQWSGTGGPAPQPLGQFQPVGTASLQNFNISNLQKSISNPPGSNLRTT
T16 sequence (Q96PN8 whole entry): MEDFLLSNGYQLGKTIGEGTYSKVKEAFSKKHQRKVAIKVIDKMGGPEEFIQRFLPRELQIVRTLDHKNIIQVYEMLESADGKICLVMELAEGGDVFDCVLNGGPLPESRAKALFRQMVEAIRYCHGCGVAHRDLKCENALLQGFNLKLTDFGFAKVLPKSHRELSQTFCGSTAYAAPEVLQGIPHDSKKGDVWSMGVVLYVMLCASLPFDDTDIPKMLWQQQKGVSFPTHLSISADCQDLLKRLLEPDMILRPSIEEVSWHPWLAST

CCN1CCN(C(=O)c2ccc(Nc3ncc(F)c(-c4ccc5nc(N(C)C)sc5c4)n3)nc2)CC1 [YK-2-69] was tested. Which remaining activity at 1 µM [1] did it give?
The remaining activity at 1 µM was 89.2%.

And the remaining activity at 1 µM [2]?
The remaining activity at 1 µM was 90.9%.

And the remaining activity at 1 µM [3]?
Its remaining activity at 1 µM is 94.5%.

And the remaining activity at 1 µM [4]?
Its remaining activity at 1 µM is 101%.

And the remaining activity at 1 µM [5]?
The remaining activity at 1 µM was 88.9%.

And the remaining activity at 1 µM [6]?
The remaining activity at 1 µM was 75.2%.

What about the “% Enzyme Activity (relative to DMSO controls)” value [7] of the same compound?
Its value is 102.94% and 101.79%.

And the remaining activity at 1 µM [8]?
The remaining activity at 1 µM was 98%.

And the remaining activity at 1 µM [9]?
Its remaining activity at 1 µM is 82%.

And the remaining activity at 1 µM [10]?
The remaining activity at 1 µM was 89.5%.

And the remaining activity at 1 µM [11]?
Its remaining activity at 1 µM is 94%.

What about the remaining activity at 1 µM [12] of the same compound?
Its remaining activity at 1 µM is 89.2%.

What about the remaining activity at 1 µM [13] of the same compound?
The remaining activity at 1 µM was 97.2%.

What about the “% Enzyme Activity (relative to DMSO controls)” value [14] of the same compound?
Its value is 99.00% and 95.59%.

And the remaining activity at 1 µM [15]?
Its remaining activity at 1 µM is 93.1%.

What about the remaining activity at 1 µM [16] of the same compound?
The remaining activity at 1 µM was 94.6%.

What about the remaining activity at 1 µM [17] of the same compound?
The remaining activity at 1 µM was 91.2%.

What about the “% Enzyme Activity (relative to DMSO controls)” value [18] of the same compound?
Its value is 116.91% and 108.19%.

What about the remaining activity at 1 µM [19] of the same compound?
Its remaining activity at 1 µM is 104%.

And the “% Enzyme Activity (relative to DMSO controls)” value [20]?
Its value is 87.21% and 86.27%.

And the remaining activity at 1 µM [21]?
The remaining activity at 1 µM was 98.8%.

And the remaining activity at 1 µM [22]?
Its remaining activity at 1 µM is 37.5%.
